In US10722484B2, “Methods of cancer treatment” (K-Gen, Inc., priority 2016, dated 2020):
Read-outs that look alike come from different tables or passages of the source.

Key:
Assay in all cases: Proliferation assay (CellTiter Glo)
[1] = test system: MiaPaCa-2; format: cell-based; conditions: Homo sapiens, MIA PaCa-2, 96 hours
[2] = test system: HL60; format: cell-based, human; conditions: 96 hours; for EC50: Homo sapiens, HL-60
Experimental: (§1) The dose range for most compounds was 4.6 nM-30 μM. The dose ranges for some compounds were adjusted downward to 0.46 nM-3 μM or 0.08 nM-0.5 μM or 0.03 nM-0.2 μM. […] The results are shown in Tables 3-6 for pancreatic cancer, lung cancer, colon/gastric cancer, and leukemia.

[3] = test system: THP1; format: cell-based, human; conditions: 96 hours; for EC50: Homo sapiens, THP-1
Experimental: as §1

[4] = test system: SW620; format: cell-based; conditions: 96 hours; for EC50: Homo sapiens, SW-620
Experimental: as §1

[5] = test system: AGS; format: cell-based; conditions: 96 hours; for EC50: Homo sapiens
Experimental: as §1

[6] = test system: HCT116; format: cell-based; conditions: 96 hours; for EC50: Homo sapiens, HCT-116
Experimental: as §1

[7] = test system: H727; format: cell-based; conditions: 96 hours; for EC50: Homo sapiens, NCI-H727
Experimental: as §1

[8] = test system: LS180; format: cell-based; conditions: 96 hours; for EC50: Homo sapiens
Experimental: as §1

[9] = test system: H441; format: cell-based; conditions: 96 hours; for EC50: Homo sapiens, NCI-H441
Experimental: as §1

[10] = test system: H358; format: cell-based; conditions: HE58, 96 hours; for EC50: Homo sapiens, NCI-H358
Experimental: as §1

[11] = test system: A549; format: cell-based; conditions: 96 hours; for EC50: Homo sapiens
Experimental: as §1

[12] = test system: Pan2.13; format: cell-based; conditions: 96 hours
Experimental: as §1

[13] = test system: KP-4; format: cell-based; conditions: 96 hours; for EC50: Homo sapiens
Experimental: as §1

[14] = test system: CCRF-CEM; format: cell-based; conditions: 96 hours; for EC50: Homo sapiens
Experimental: as §1

[15] = test system: AsPC-1; format: cell-based; conditions: 96 hours; for EC50: Homo sapiens, ASPC1
Experimental: as §1

[16] = test system: Pan2.03; format: cell-based; conditions: 96 hours
Experimental: as §1

[17] = test system: Capan-1; format: cell-based; conditions: 96 hours; for EC50: Homo sapiens
Experimental: as §1

With `CC(=O)O[C@H]1C(=O)[C@@]2(C)[C@H]([C@H](OC(=O)c3ccccc3)[C@]3(O)C[C@H](OC(=O)[C@H](O)[C@@H](NC(=O)c4ccccc4)c4ccccc4)C(C)=C1C3(C)C)[C@]1(OC(C)=O)CO[C@@H]1C[C@@H]2O` [Paclitaxel] the EC50 ([1]; MiaPaCa-2 (K-RAS: G12C), absolute EC50, read-out: Ab EC50) was 3.4 nM, the EC50 ([1]; MiaPaCa-2, relative EC50, read-out: Re EC50) was 3.3 nM and the “Top Inhibition %” value ([2]; HL60, % of top inhibition) was 98.7%. It also gave an EC50 ([2]; HL60 (N-RAS: Q61L), absolute EC50, read-out: Ab EC50) of 5.2 nM, an EC50 ([2]; HL60, relative EC50, read-out: Re EC50) of 5.2 nM and an EC50 ([3]; THP1 (N-RAS: G12D), absolute EC50, read-out: Ab EC50) of 8.3 nM. The EC50 ([3]; THP1, relative EC50, read-out: Re EC50) was 7.6 nM, the “Top Inhibition %” value ([3]; THP1, % of top inhibition) was 91.2% and the EC50 ([4]; SW620 (K-RAS: G12V), absolute EC50, read-out: Ab EC50) was 12 nM. The EC50 ([4]; SW620, relative EC50, read-out: Re EC50) was 9.4 nM, the “Top Inhibition %” value ([4]; SW620, % of top inhibition) was 92.1% and the “Top Inhibition %” value ([5]; AGS, % of top inhibition) was 87.7%. The EC50 ([5]; AGS (gastric, K-RAS: G12D), absolute EC50, read-out: Ab EC50) was 4.7 nM, the EC50 ([5]; AGS, relative EC50, read-out: Re EC50) was 3.9 nM and the “Top Inhibition %” value ([6]; HCT116, % of top inhibition) was 94.8%. The EC50 ([6]; HCT116 (K-RAS: G13D), absolute EC50, read-out: Ab EC50) was 2.2 nM, the EC50 ([6]; HCT116, relative EC50, read-out: Re EC50) was 2.1 nM and the “Top Inhibition %” value ([7]; H727, % of top inhibition) was 49.0%. The EC50 ([7]; H727 (K-RAS: G12V), absolute EC50, read-out: Ab EC50) was greater than 500 nM, the EC50 ([7]; H727, relative EC50, read-out: Re EC50) was 2.3 nM and the EC50 ([8]; LS180 (K-RAS: G12D), absolute EC50, read-out: Ab EC50) was 14 nM. The EC50 ([8]; LS180, relative EC50, read-out: Re EC50) was 8.8 nM, the “Top Inhibition %” value ([8]; LS180, % of top inhibition) was 67.1% and the “Top Inhibition %” value ([9]; H441, % of top inhibition) was 51.9%. For the same compound, the EC50 ([9]; H441 (K-RAS: G12V), absolute EC50, read-out: Ab EC50) was 35.8 nM, the EC50 ([9]; H441, relative EC50, read-out: Re EC50) was 3.5 nM and the “Top Inhibition %” value ([10]; % of top inhibition) was 89.2%. The EC50 ([10]; absolute EC50, read-out: Ab EC50) was 2.4 nM, the EC50 ([10]; relative EC50, read-out: Re EC50) was 1.8 nM and the “Top Inhibition %” value ([11]; A549, % of top inhibition) was 86.0%. It also gave an EC50 ([11]; A549 (K-RAS: G12S), absolute EC50, read-out: Ab EC50) of 2.6 nM, an EC50 ([11]; A549, relative EC50, read-out: Re EC50) of 2.3 nM and an EC50 ([12]; Pan2.13 (K-RAS: Q61H), absolute EC50, read-out: Ab EC50) of 65 nM. The “Top Inhibition %” value ([12]; Pan2.13, % of top inhibition) was 53.2%, the EC50 ([12]; Pan2.13, relative EC50, read-out: Re EC50) was 2.7 nM and the EC50 ([13]; KP-4 (K-RAS: G12C), absolute EC50, read-out: Ab EC50) was 1.9 nM. For the same compound, the EC50 ([13]; KP-4, relative EC50, read-out: Re EC50) was 1.8 nM, the “Top Inhibition %” value ([13]; KP-4, % of top inhibition) was 96.2% and the “Top Inhibition %” value ([14]; CCRF-CEM, % of top inhibition) was 97.8%. For the same compound, the EC50 ([14]; CCRF-CEM (K-RAS: G12D), absolute EC50, read-out: Ab EC50) was 4 nM, the EC50 ([14]; CCRF-CEM, relative EC50, read-out: Re EC50) was 3.9 nM and the “Top Inhibition %” value ([15]; AsPC-1, % of top inhibition) was 60.9%. For the same compound, the EC50 ([15]; AsPC-1 (K-RAS: G12D), absolute EC50, read-out: Ab EC50) was 10 nM, the EC50 ([15]; AsPC-1, relative EC50, read-out: Re EC50) was 3.8 nM and the EC50 ([16]; Pan2.03 (K-RAS: G12D), absolute EC50, read-out: Ab EC50) was 3.3 nM. The “Top Inhibition %” value ([16]; Pan2.03, % of top inhibition) was 64.7%, the EC50 ([16]; Pan2.03, relative EC50, read-out: Re EC50) was 1.8 nM and the “Top Inhibition %” value ([17]; Capan-1, % of top inhibition) was 73.5%. It also gave an EC50 ([17]; Capan-1 (K-RAS: G12V), absolute EC50, read-out: Ab EC50) of 11 nM and an EC50 ([17]; Capan-1, relative EC50, read-out: Re EC50) of 7.2 nM.
